Experimental data: ChEMBL document CHEMBL3612051, “Carbonic anhydrase inhibitors: Design, synthesis and structural characterization of new heteroaryl-N-carbonylbenzenesulfonamides targeting druggable human carbonic anhydrase isoforms” (Eur J Med Chem, 2015)

Experiments:
[1] = biological target: Carbonic anhydrase 9 (Homo sapiens, UniProt Q16790); test: Inhibition of human recombinant full length carbonic anhydrase 9 preincubated for 15 mins by stopped-flow CO2 hydration assay
[2] = biological target: Carbonic anhydrase 7 (Homo sapiens, UniProt P43166); test: Inhibition of human recombinant full length carbonic anhydrase 7 preincubated for 15 mins by stopped-flow CO2 hydration assay
Chain of Carbonic anhydrase 7 (P43166 whole entry): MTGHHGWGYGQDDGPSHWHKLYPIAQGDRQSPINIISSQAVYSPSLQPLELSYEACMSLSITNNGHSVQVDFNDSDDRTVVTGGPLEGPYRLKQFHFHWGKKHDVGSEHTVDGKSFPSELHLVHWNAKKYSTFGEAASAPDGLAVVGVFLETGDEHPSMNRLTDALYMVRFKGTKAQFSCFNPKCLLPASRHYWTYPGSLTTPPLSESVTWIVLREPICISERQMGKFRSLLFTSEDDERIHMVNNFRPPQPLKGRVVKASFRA

Compound	Ki [1] [nM]	IC50 [2] [nM]
COc1cc2c(cc1OC)CN(C(=O)c1ccc(S(N)(=O)=O)cc1)CC2	6.1	–
NS(=O)(=O)c1ccc(C(=O)N2CCc3cc(O)c(O)cc3C2)cc1	5.01	–
COc1ccc2c(c1)CCCN2C(=O)c1ccc(S(N)(=O)=O)cc1	6.5	> 50000
NS(=O)(=O)c1ccc(C(=O)N2CCCc3cc(O)ccc32)cc1	42	–
NS(=O)(=O)c1ccc(C(=O)N2CCCc3ccccc32)cc1	9.4	–

Results, then the molecule that gave them:

Ki [1] [nM]	IC50 [2] [nM]	Compound
27	–	COc1ccc2c(c1)CCN(C(=O)c1ccc(S(N)(=O)=O)cc1)C2
28	–	NS(=O)(=O)c1ccc(C(=O)N2CCc3cc(O)ccc3C2)cc1
7.5	–	NS(=O)(=O)c1ccc(C(=O)N2CCc3ccccc3C2)cc1
